What was measured:
human mGluR5d = target: T1, human mGluR5d (Homo sapiens, UniProt P41594); assay: FLIPR assay, mobilization of intracellular calcium in cells expressing human mGluR5d; type: cell-based; details: antagonism of agonist response, read-out: FLIPR hmGluR5d
T1 construct: expressed in transfected cells; The cells are kept under hygromycin B and Zeocin selection; The separate IP3 assay names GHEK cells stably expressing human mGluR5d
Description: Functional Assessment of mGluR5 Antagonism in Cell Lines Expressing mGluR5D
The properties of the compounds of the invention can be analyzed using standard assays for pharmacological activity. Examples of glutamate receptor assays are well known in the art as described in for example Aramori et al., Neuron 8:757 (1992), Tanabe et al. Neuron 8:169 (1992), Miller et al., J. Neuroscience 15: 6103 (1995), Balazs, et al., J. Neurochemistry 69:151 (1997). The methodology described in these publications is incorporated herein by reference. Conveniently, the compounds of the invention can be studied by means of an assay (FLIPR) that measures the mobilization of intracellular calcium, [Ca^2+]i in cells expressing mGluR5 or another assay (IP3) that measures inositol phosphate turnover.
Cells expressing human mGluR5d as described in WO97/05252 cultured in a mixture of high glucose DMEM with Glutamax (31966-021)(500 mL), 10% dialyzed fetal bovine serum (Hyclone #SH30079.03) (56 mL), 200 μg/mL Hygromycin B (Invitrogen 45-0430, 50 mg/mL) (2.2 mL), 200 μg/mL Zeocin (Invitrogen #R250-01; 100 mg/mL) (1.1 mL) are seeded at a density of 100,000 cells per well on collagen coated clear bottom 96-well plates with black sides and cells were allowed to adhere over night before experiments. All assays are done in a buffer containing 146 mM NaCl, 5 mM KCl, 1 mM MgCl2, 1 mM CaCl2, 20 mM HEPES, 1 mg/mL glucose and 1 mg/mL BSA Fraction IV (pH 7.4). Cell cultures in the 96-well plates are loaded for 60 minutes in the above mentioned buffer containing 6 μM of the acetoxymethyl ester form of the fluorescent calcium indicator fluo-3 (Molecular Probes, Eugene, Oreg.) in 0.025% pluronic acid (a proprietary, non-ionic surfactant polyol—CAS Number 9003-11-6). Following the loading period the fluo-3 buffer is removed and replaced with fresh assay buffer. FLIPR experiments are done using a laser setting of 0.700 W and a 0.4 second CCD camera shutter speed with excitation and emission wavelengths of 488 nm and 562 nm, respectively. Each experiment is initiated with 160 μl of buffer present in each well of the cell plate. A 40 μl addition from the antagonist plate was followed by a 50 μL addition from the agonist plate. A 30 minutes, in dark at 25° C., interval separates the antagonist and agonist additions. The fluorescence signal is sampled 50 times at 1-second intervals followed by 3 samples at 5-second intervals immediately after each of the two additions. Responses are measured as the difference between the peak heights of the response to agonist, less the background fluorescence within the sample period. IC50 determinations are made using a […] least squares fitting program.

[1] = Determination of brain to plasma ratio in rat; type: in vivo; details: brain and plasma, female Sprague Dawley rats, read-out: Brain/Plasma Ratio of compound in Rat
Procedure: Brain to plasma ratios are estimated in female Sprague Dawley rats. The compound is dissolved in water or another appropriate vehicle. For determination of brain to plasma ratio the compound is administrated as a subcutaneous, or an intravenous bolus injection, or an intravenous infusion, or an oral administration. At a predetermined time point after the administration a blood sample is taken with cardiac puncture. The rat is terminated by cutting the heart open, and the brain is immediately retained. The blood samples are collected in heparinized tubes and centrifuged within 30 minutes, in order to separate the plasma from the blood cells. The plasma is transferred to 96-well plates and stored at −20° C. until analysis. The brains are divided in half, and each half is placed in a pre-tarred tube and stored at −20° C. until analysis. Prior to the analysis, the brain samples are thawed and 3 mL/g brain tissue of distilled water is added to the tubes. The brain samples are sonicated in an ice bath until the samples are homogenized. Both brain and plasma samples are precipitated with acetonitrile. After centrifugation, the supernatant is diluted with 0.2% formic acid. Analysis is performed on a short reversed-phase HPLC column with rapid gradient elution and MSMS detection using a triple quadrupole instrument with electrospray ionisation and Selected Reaction Monitoring (SRM) acquisition. Liquid-liquid extraction may be used as an alternative sample clean-up. The samples are extracted, by shaking, to an organic solvent after addition of a suitable buffer. An aliquot of the organic layer is transferred to a new vial and evaporated to dryness under a stream of nitrogen. After reconstitution of the residuals the samples are ready for injection onto the HPLC column.

T1 sequence (P41594 21-942 isoform P41594-3 limits assumed): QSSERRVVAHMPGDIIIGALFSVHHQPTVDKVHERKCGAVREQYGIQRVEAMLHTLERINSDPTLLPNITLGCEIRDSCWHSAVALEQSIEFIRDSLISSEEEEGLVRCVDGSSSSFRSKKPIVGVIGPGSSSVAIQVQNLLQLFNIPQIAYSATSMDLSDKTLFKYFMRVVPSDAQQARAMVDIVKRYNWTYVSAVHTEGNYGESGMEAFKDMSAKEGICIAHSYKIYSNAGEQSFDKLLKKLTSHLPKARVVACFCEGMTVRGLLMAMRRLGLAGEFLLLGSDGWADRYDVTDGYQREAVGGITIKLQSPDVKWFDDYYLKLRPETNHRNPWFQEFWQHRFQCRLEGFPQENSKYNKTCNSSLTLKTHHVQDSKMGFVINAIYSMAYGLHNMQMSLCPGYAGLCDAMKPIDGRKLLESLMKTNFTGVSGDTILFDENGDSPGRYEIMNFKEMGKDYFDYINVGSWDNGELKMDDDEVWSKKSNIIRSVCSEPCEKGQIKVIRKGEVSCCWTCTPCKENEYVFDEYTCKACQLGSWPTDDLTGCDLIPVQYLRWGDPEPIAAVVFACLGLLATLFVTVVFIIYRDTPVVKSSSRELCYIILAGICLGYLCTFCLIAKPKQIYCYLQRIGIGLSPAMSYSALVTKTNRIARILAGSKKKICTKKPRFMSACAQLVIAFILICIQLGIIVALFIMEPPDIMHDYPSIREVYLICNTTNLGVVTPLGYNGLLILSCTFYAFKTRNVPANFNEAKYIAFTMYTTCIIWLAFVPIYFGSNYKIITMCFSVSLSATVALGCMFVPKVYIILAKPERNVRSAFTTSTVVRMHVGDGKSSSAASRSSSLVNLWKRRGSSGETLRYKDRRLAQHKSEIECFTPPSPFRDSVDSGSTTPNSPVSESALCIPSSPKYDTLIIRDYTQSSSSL

Structure (SMILES) | IC50 (human mGluR5d) [nM] | Kp [1]
CN(Cc1cc(-c2cccc(Cl)c2)on1)c1nnc(-c2cc(=O)[nH]cn2)n1C1CC1 [Example 4.5, 6-{5-[{[5-(3-chlorophenyl)isoxazol-3-yl]methyl}(methyl)amino]-4-cyclopropyl-4H-1,2,4-triazol-3-yl}pyrimidin-4(3H)-one] | 77 | < 0.01
Cc1cccc(-c2cc([C@H](C)N(C)c3nnc(-c4cc[nH]c(=O)c4)n3C)no2)c1 [Example 4.12, (−)-4-[4-Methyl-5-(methyl-{(1S)-1-[5-(3-methylphenyl)-isoxazol-3-yl]ethyl}amino)-4H-1,2,4-triazol-3-yl]pyridin-2(1H)-one] | 71 | < 0.01
Cc1cccc(-c2cc([C@H](C)N(C)c3nnc(-c4cn[nH]c(=O)c4)n3C)no2)c1 [Example 4.11, (−)-5-[4-Methyl-5-(methyl-{(1S)-1-[5-(3-methylphenyl)isoxazol-3-yl]ethyl}amino)-4H-1,2,4-triazol-3-yl]pyridazin-3(2H)-one] | 43 | < 0.01
CC(c1cc(-c2cccc(Cl)c2)on1)N(C)c1nnc(-c2ccn(C)c(=O)c2)n1C (single isomer, unassigned; (-)) [(−) 5.1] | 30 | < 0.01
CCn1c(-c2cc(=O)[nH]cn2)nnc1N(C)Cc1cc(-c2cccc(Cl)c2)on1 [Example 4.4, 6-{5-[{[5-(3-chlorophenyl)-isoxazol-3-yl]methyl}(methyl)amino]-4-ethyl-4H-1,2,4-triazol-3-yl}pyrimidin-4(3H)-one] | 13 | < 0.01
CC(c1cc(-c2cccc(Cl)c2)on1)N(c1nnc(-c2cn[nH]c(=O)c2)n1C)C1CC1 (single isomer, unassigned; (-)) [(−) 5.2] | 111 | < 0.01
CCN(Cc1noc(-c2cccc(C)c2)n1)c1nnc(-c2cn[nH]c(=O)c2)n1C [Example 8.5, 5-[5-(Ethyl{[5-(3-methylphenyl)-1,2,4-oxadiazol-3-yl]methyl}amino)-4-methyl-4H-1,2,4-triazol-3-yl]pyridazin-3(2H)-one] | 52 | < 0.01
CCN(Cc1noc(-c2cccc(C)c2)n1)c1nnc(-c2ccn(C)c(=O)c2)n1C [Example 8.6, 4-[5-(Ethyl{[5-(3-methylphenyl)-1,2,4-oxadiazol-3-yl]methyl}amino)-4-methyl-4H-1,2,4-triazol-3-yl]-1-methylpyridin-2(1H)-one] | 75 | < 0.01
CCN(Cc1cc(-c2cccc(C)c2)on1)c1nnc(-c2ccn(C)c(=O)c2)n1C [Example 4.8, 4-[5-(Ethyl{[5-(3-methylphenyl)isoxazol-3-yl]methyl}amino)-4-methyl-4H-1,2,4-triazol-3-yl]-1-methylpyridin-2(1H)-one] | 112 | 0.22
CCN(Cc1cc(-c2cccc(Cl)c2)on1)c1nnc(-c2ccn(C)c(=O)c2)n1C [Example 4.10, 4-{5-[{[5-(3-Chlorophenyl)-isoxazol-3-yl]methyl}(ethyl)amino]-4-methyl-4H-1,2,4-triazol-3-yl}-1-methylpyridin-2(1H)-one] | 65 | < 0.01
Cc1cccc(-c2cc([C@H](C)N(C)c3nnc(-c4cnn(C)c(=O)c4)n3C)no2)c1 [Example 14, 2-Methyl-5-[4-methyl-5-(methyl{(1S)-1-[5-(3-methylphenyl)isoxazol-3-yl]ethyl}amino)-4H-1,2,4-triazol-3-yl]pyridazin-3(2H)-one] | 12 | 0.07
Cc1cccc(-c2cc([C@H](C)N(C)c3nnc(-c4ccn(C)c(=O)c4)n3C)no2)c1 [Example 8.3, 1-Methyl-4-[4-methyl-5-(methyl-{(1S)-1-[5-(3-methylphenyl)-isoxazol-3-yl]ethyl}amino)-4H-1,2,4-triazol-3-yl]pyridin-2(1H)-one] | 117 | < 0.01
CCn1c(-c2cc(=O)[nH]cn2)nnc1N(C)Cc1cc(-c2cccc(C)c2)on1 [Example 4.7, 6-[4-Ethyl-5-(methyl{[5-(3-methylphenyl)isoxazol-3-yl]methyl}amino)-4H-1,2,4-triazol-3-yl]pyrimidin-4(3H)-one] | 53 | < 0.015
CN(Cc1cc(-c2cccc(Cl)c2)on1)c1nnc(-c2ccnnc2)n1C [Example 8.1, N-{[5-(3-Chlorophenyl)isoxazol-3-yl]methyl}-N,4-dimethyl-5-pyridazin-4-yl-4H-1,2,4-triazol-3-amine] | 10 | 0.03
CCN(Cc1cc(-c2cccc(C)c2)on1)c1nnc(-c2cc[nH]c(=O)c2)n1C [Example 4.9, 4-[5-(Ethyl{[5-(3-methylphenyl)isoxazol-3-yl]methyl}amino)-4-methyl-4H-1,2,4-triazol-3-yl]pyridin-2(1H)-one] | 53 | 0.035
CCN(Cc1cc(-c2cccc(Cl)c2)on1)c1nnc(-c2cc[nH]c(=O)c2)n1C [Example 4.2, 4-{5-[{[5-(3-Chlorophenyl)-isoxazol-3-yl]methyl}(ethyl)amino]-4-methyl-4H-1,2,4-triazol-3-yl}pyridin-2(1H)-one] | 31 | 0.02
CCN(Cc1cc(-c2cccc(C)c2)on1)c1nnc(-c2cn[nH]c(=O)c2)n1C [Example 4.6, 5-[5-(Ethyl{[5-(3-methylphenyl)isoxazol-3-yl]-methyl}amino)-4-methyl-4H-1,2,4-triazol-3-yl]pyridazin-3(2H)-one] | 45 | 0.01
CN(Cc1cc(-c2cccc(Cl)c2)on1)c1nnc(-c2cncnc2)n1C [Example 8.2, N-{[5-(3-Chlorophenyl)isoxazol-3-yl]methyl}-N,4-dimethyl-5-pyrimidin-5-yl-4H-1,2,4-triazol-3-amine] | 20 | 0.16
Cn1c(-c2cn[nH]c(=O)c2)nnc1N(Cc1cc(-c2cccc(Cl)c2)on1)C1CC1 [Example 4.1, 5-{5-[{[5-(3-Chlorophenyl)isoxazol-3-yl]methyl}(cyclopropyl)amino]-4-methyl-4H-1,2,4-triazol-3-yl}pyridazin-3(2H)-one] | 41 | < 0.01
CCN(Cc1cc(-c2cccc(Cl)c2)on1)c1nnc(-c2cn[nH]c(=O)c2)n1C [Example 4.3, 5-{5-[{[5-(3-Chlorophenyl)-isoxazol-3-yl]methyl}(ethyl)-amino]-4-methyl-4H-1,2,4-triazol-3-yl}pyridazin-3(2H)-one] | 21 | 0.015
CCN(Cc1noc(-c2cccc(Cl)c2)n1)c1nnc(-c2cn[nH]c(=O)c2)n1C [Example 8.4, 5-{5-[{[5-(3-Chlorophenyl)-1,2,4-oxadiazol-3-yl]methyl}(ethyl)amino]-4-methyl-4H-1,2,4-triazol-3-yl}pyridazin-3(2H)-one] | 43 | < 0.01
